Data on one compound can be found in patent publication US20240269148A1, “Enhancement of Anti-Angiogenic Cancer Immunotherapy by Abortogenic Agents” (Therapeutic Solutions International, Inc., priority 2023, published 2024).

In experiment [1] the test system is T cell. Kind of experiment: T cell reactivity in vitro after RU-486 administration (4T1 model). The settings on record: administration of RU-486. The experiment is classed as cell-based.
The subject of experiment [2] is 4T1 cells. Kind of experiment: 4T1 triple negative breast cancer model in BALB/c mice. The experiment is classed as in vivo. As for the experimental part: Female BALB/c mice were administered 4T1 cells at a concentration of 1 million cells per mouse. VALLOVAX™ at a concentration of 500,000 cells per mouse was administered alone, RU-486 was administered alone (25 μg/g dose) and in combination of RU-486 and VALLOVAX™.

SMILES strings stand for the structures.

On to `CC#C[C@]1(O)CC[C@H]2[C@@H]3CCC4=CC(=O)CCC4=C3[C@@H](c3ccc(N(C)C)cc3)C[C@@]21C` [RU-486, mifepristone], for which the “T cell reactivity in vitro” value in experiment [1] is reported as “increased”. In experiment [2] (administration of RU-486), the “Breast cancer induced myeloid suppressor cells” value is reported as “decreased” and the “Generation of CD8 cells capable of adoptively transferring immunity” value is recorded as “enhance”. In addition, the “Therapeutic activity of ValloVax” value in experiment [2] (triple negative breast cancer 4T1 model) was “enhances”.
